24 molecules from patent publication US20260242391A1 (priority 2023, published 2026) can be followed below.

Read-outs that look alike come from different tables or passages of the source.

Data set [1] concerns HL-60.
Data set [2] concerns HL-60. Nature of the data set: HL-60 differentiation potency. It counts as cell-based. As to conditions: Homo sapiens.
The subject of data set [3] is HL-60. The source holds these as a separate data set.
Data set [4] relates to HL-60. The data set is described as follows: HL-60 differentiation potency. In kind it is cell-based. Particulars: Homo sapiens. This is another data set of the same source.
The subject of data set [5] is MDS-L cells. As to conditions: for EC50: read-out: MDS-L GlyA induction EC50; for Induction of differentiation of MDS-L cells (GlyA positivity), in words: anti-GlyA immunopositivity.
Procedure: MDS-L differentiation assay.
(§1) MDS-L were cultured in RPMI (17-105-CV, Corning) without phenol red and supplemented with 2 mM glutamine and 10% FBS. Cells first expanded in IL-3 until 70% confluence then pre-conditioned for 14 days with IL-3 (200-03, PeproTech), GCSF (300-23, PeproTech), and EPO (287-TC, R&D Systems) to promote erythroid and myeloid differentiation. A density of 10,000 cells per well were used in phenotypic assays. MDSL cells were spun and treatment media was replaced with media containing APC Anti-CD235a (GlyA) (551336, BD Biosciences) (1.25 μL per 50 L test) and incubated for 1 hour at 4° C. Cells were washed then counter stained with SYTOX-Green 1 M per 100 L prior to flow cytometry analysis. Dose response and pharmacological assays were analyzed using a ZE5 Cell Analyzer (BioRad) equipped with Everest software. Single, live, cells were analyzed for GlyA expression using FlowJo v10.7.2 software.
Data set [6] relates to MDS-L cells. The data set is described as follows: cells. Particulars: read-out: MDS-L GlyA induction EC50.
Procedure: MDS-L differentiation assay.
as §1
A further data set can be described thus: in vitro. As to conditions: human.
Setting [7] is: MDS-L cells, anti-CD235a (GlyA) flow cytometry.

As for `C[C@H]1[C@@H](Oc2ccc(C(=O)C(=O)O)cc2)O[C@@H]2O[C@@]3(C)CC[C@H]4[C@H](C)CC[C@@H]1[C@@]24OO3` [Compound 128, 2-oxo-2-(4-(((3R,5aS,6R,8aS, 9R,10S,12R, 12aR)-3,6,9-trimethyldeca-hydro-12H-3,12-epoxy[1,2]dioxepino[4,3-i]isochromen-10-yl)oxy)phenyl) acetic acid], the IC50 with HL-60 [1] came out at 20 µM. Besides, the EC50 in the data set with HL-60 [2] was 1.22 µM.

Consider `C[C@H]1[C@H](OC2CCc3cc(C(=O)O)ccc32)O[C@@H]2O[C@@]3(C)CC[C@H]4[C@H](C)CC[C@@H]1[C@@]24OO3` (stereo partly drawn) [Compound 225, 1-(((3R,5aS,6R,8aS, 9R,10R,12R, 12aR)-3,6,9-trimethyldeca-hydro-12H-3,12-epoxy[1,2]dioxepino[4,3-i]isochromen-10-yl)oxy)-2,3-dihydro-1H-indene-5-carboxylic acid], for which the IC50 in the data set on HL-60 [3] is 20 µM. It took 0.203 µM to reach a half-maximal effect in the data set on HL-60 [4] (EC50).

In the case of `C[C@H]1[C@H](Oc2cc(F)c(CC(=O)O)c(F)c2)O[C@@H]2O[C@@]3(C)CC[C@H]4[C@H](C)CC[C@@H]1[C@@]24OO3` [Compound 14, 2-(2,6-difluoro-4-(((3R,5aS,6R, 8aS,9R,10R,12R, 12aR)-3,6,9-trimethyldeca-hydro-12H-3,12-epoxy[1,2]dioxepino[4,3-i]isochromen-10-yl)oxy)phenyl) acetic acid], 20 µM corresponded to half-maximal inhibition with HL-60 [1] (IC50). The EC50 in the data set on HL-60 [2] came out at 0.0909 µM.

On to Arterolane [Arterolane (OZ-277)], for which, in the data set with MDS-L cells [5] (setting [7]), the “Maximal MDS-L GlyA fold induction” value is recorded as 7.02 fold and the EC50 stood at 1.74 µM.

With `CC1=C(/C=C/C(C)=C/C=C/C(C)=C/C(=O)O)C(C)(C)CCC1` [ATRA, retinoic acid], the “Cytotoxicity as readout by live dead cell gating” value in the data set on MDS-L cells [5] (MDS-L cells) was “minimal cytotoxicity”.

Take `C[C@H]1[C@@H](Oc2cc(F)c(CC(=O)O)c(F)c2)O[C@@H]2O[C@@]3(C)CC[C@H]4[C@H](C)CC[C@@H]1[C@@]24OO3` [Compound 22, 2-(2,6-difluoro-4-(((3R,5aS,6R, 8aS,9R,10S,12R, 12aR)-3,6,9-trimethyldeca-hydro-12H-3,12-epoxy[1,2]dioxepino[4,3-i]isochromen-10-yl)oxy)phenyl) acetic acid]: 20 µM corresponded to half-maximal inhibition with HL-60 [1] (IC50). Besides, a half-maximal response in the data set on HL-60 [2] (EC50) required 0.131 µM.

Turning to `C[C@H]1[C@@H](OCc2ccc(C(=O)O)cc2)O[C@@H]2O[C@@]3(C)CC[C@H]4[C@H](C)CC[C@@H]1[C@@]24OO3` [Artelinic acid (artelinate), artelinate], the “Maximal MDS-L GlyA fold induction” value with MDS-L cells [5] (human) was 7.26 fold. Moreover, in the data set on MDS-L cells [6], the EC50 was found to be 0.03 µM.

As to `C[C@H]1[C@H](OC(=O)CCC(=O)O)O[C@@H]2O[C@@]3(C)CC[C@H]4[C@H](C)CC[C@@H]1[C@@]24OO3` [Artesunate, artesunate], in the data set with MDS-L cells [5] (human), the “Maximal MDS-L GlyA fold induction” value was 7.51 fold. For the same molecule, in the data set with MDS-L cells [6], the EC50 was 0.85 µM.

As for `CCCCCCCCCCCCCC(=O)O[C@@H]1[C@@H](C)[C@@]2(O)[C@@H](C=C(CO)C[C@]3(O)C(=O)C(C)=C[C@@H]23)[C@@H]2C(C)(C)[C@]12OC(C)=O` [phorbol 12-myristate 13-acetate (PMA), phorbol 12-myristate 13-acetate], the “Induction of differentiation of MDS-L cells (GlyA positivity), in words” value (from here on “Induction of differentiation … in words”) in the data set on MDS-L cells [5] (MDS-L cells) is recorded as “efficacious at inducing differentiation”.

Turning to Artefenomel [Artefenomel (OZ-439)], in the data set with MDS-L cells [5] (setting [7]), the “Maximal MDS-L GlyA fold induction” value turned out to be 3.71 fold and the concentration for a half-maximal effect (EC50) turned out to be 5.65 µM.

`C[C@H]1[C@@H](OC[C@H]2CC[C@@H](C(=O)N[C@H]3CC[C@@H](C(=O)O)C3)CC2)O[C@@H]2O[C@@]3(C)CC[C@H]4[C@H](C)CC[C@@H]1[C@@]24OO3` [Compound 267, (1R,3S)-3-((1R,4R)-4-((((3R,5aS,6R,8aS, 9R,10S,12R, 12aR)-3,6,9-trimethyldeca-hydro-12H-3,12-epoxy[1,2]dioxepino[4,3-i]isochromen-10-yl)oxy)methyl)cyclohexane-1-carboxamido) cyclopentane-1-carboxylic acid] had an IC50 with HL-60 [3] of 20 µM. Further, the EC50 in the data set on HL-60 [4] turned out to be 0.156 µM.

With `C[C@H]1[C@@H](O)O[C@@H]2O[C@@]3(C)CC[C@H]4[C@H](C)CC[C@@H]1[C@@]24OO3` [Dihydroartemisin, dihydro- artemisinin], the “Maximal MDS-L GlyA fold induction” value in the data set with MDS-L cells [5] (human) is reported as 7.09 fold. The EC50 with MDS-L cells [6] was 0.61 µM.

`C[C@@H]1CC[C@H]2[C@@H](C)C(=O)O[C@@H]3O[C@@]4(C)CC[C@@H]1[C@]32O4` [2-deoxy-artemisinin]: the “Induction of differentiation … in words” value with MDS-L cells [5] (MDS-L cells) is “inactive”.

In the data set on HL-60 [4], `C[C@H]1[C@H](OCc2ccc(C(=O)O)cc2C(F)(F)F)O[C@@H]2O[C@@]3(C)CC[C@H]4[C@H](C)CC[C@@H]1[C@@]24OO3` [Compound 195, 3-(trifluoromethyl)-4-((((3R,5aS,6R,8aS, 9R,10R,12R, 12aR)-3,6,9-trimethyldeca-hydro-12H-3,12-epoxy[1,2]dioxepino[4,3-i]isochromen-10-yl)oxy)methyl) benzoic acid] had an EC50 of 0.156 µM. Further, half-maximal inhibition in the data set “in vitro” (IC50) was put at 10 µM.

Regarding `C[C@H]1[C@@H](OC[C@H]2CCC(C(=O)O)CO2)O[C@@H]2O[C@@]3(C)CC[C@H]4[C@H](C)CC[C@@H]1[C@@]24OO3` (stereo partly drawn) [Compound 212, (6R)-6-((((3R,5aS,6R,8aS, 9R,10S,12R, 12aR)-3,6,9-trimethyldeca-hydro-12H-3,12-epoxy[1,2]dioxepino[4,3-i]isochromen-10-yl)oxy)methyl) tetrahydro-2H-pyran-3-carboxylic acid], a half-maximal effect in the data set on HL-60 [4] (EC50) was put at 20.5 µM. For the same molecule, the IC50 in the data set “in vitro” was greater than 20 µM.

The molecule `C[C@H]1[C@@H](Oc2ccc(C(=O)N[C@H](C(=O)O)C(C)(C)O)cc2)O[C@@H]2O[C@@]3(C)CC[C@H]4[C@H](C)CC[C@@H]1[C@@]24OO3` [Compound 254, (S)-3-hydroxy-3-methyl-2-(4-(((3R,5aS,6R,8aS, 9R,10S,12R, 12aR)-3,6,9-trimethyldeca-hydro-12H-3,12-epoxy[1,2]dioxepino[4,3-i]isochromen-10-yl)oxy)benzamido) butanoic acid] came in with an EC50 in the data set with HL-60 [4] of 4.58 µM. The same molecule had an IC50 in the data set “in vitro” greater than 20 µM.

`C[C@H]1[C@@H](O[C@H]2CC[C@@H](OCC(=O)O)CC2)O[C@@H]2O[C@@]3(C)CC[C@H]4[C@H](C)CC[C@@H]1[C@@]24OO3` [Compound 224, 2-(((1R,4s)-4-(((3R,5aS,6R,8aS, 9R,10S,12R, 12aR)-3,6,9-trimethyldeca-hydro-12H-3,12-epoxy[1,2]dioxepino[4,3-i]isochromen-10-yl)oxy)cyclohexyl)oxy)acetic acid] had an EC50 with HL-60 [4] of 8.04 µM. In the data set “in vitro”, this molecule gave an IC50 greater than 20 µM.

`C[C@H]1[C@@H](Oc2ccc3[nH]c(C(=O)O)cc3c2)O[C@@H]2O[C@@]3(C)CC[C@H]4[C@H](C)CC[C@@H]1[C@@]24OO3` [Compound 208, 5-(((3R,5aS,6R,8aS, 9R,10S,12R, 12aR)-3,6,9-trimethyldeca-hydro-12H-3,12-epoxy[1,2]dioxepino[4,3-i]isochromen-10-yl)oxy)-1H-indole-2-carboxylic acid]: the EC50 in the data set with HL-60 [4] worked out at 0.0693 µM. Moreover, the IC50 in “in vitro” was 0.37 µM.

Molecule `C[C@H]1[C@@H](OC(C)(C)[C@H]2C[C@@H](C(=O)O)C2)O[C@@H]2O[C@@]3(C)CC[C@H]4[C@H](C)CC[C@@H]1[C@@]24OO3` [Compound 206, (1R,3s)-3-(2-(((3R,5aS,6R,8aS, 9R,10S,12R, 12aR)-3,6,9-trimethyldeca-hydro-12H-3,12-epoxy[1,2]dioxepino[4,3-i]isochromen-10-yl)oxy)propan-2-yl)cyclobutane-1-carboxylic acid] came in with an EC50 in the data set on HL-60 [4] of 3.83 µM. Also, in “in vitro”, the IC50 was greater than 20 µM.

Take `Cc1c(-c2ccc(-c3ccccc3F)cc2)nc2ccc(F)cc2c1C(=O)O` [Brequinar]: in the data set on MDS-L cells [5] (MDS-L cells), the “Induction of differentiation … in words” value was “efficacious at inducing differentiation”.

`C[C@H]1[C@@H](OCC(=O)Nc2ccc(C(=O)O)cc2)O[C@@H]2O[C@@]3(C)CC[C@H]4[C@H](C)CC[C@@H]1[C@@]24OO3` [Compound 213, 4-(2-(((3R,5aS,6R,8aS, 9R,10S,12R, 12aR)-3,6,9-trimethyldeca-hydro-12H-3,12-epoxy[1,2]dioxepino[4,3-i]isochromen-10-yl)oxy)actamido) benzoic acid] displayed an EC50 with HL-60 [4] of 0.325 µM. The IC50 in the data set “in vitro” was greater than 20 µM.

`C[C@H]1[C@@H](Oc2ccc(C3(C(=O)O)COC3)cc2)O[C@@H]2O[C@@]3(C)CC[C@H]4[C@H](C)CC[C@@H]1[C@@]24OO3` [Compound 283, 3-(4-(((3R,5aS,6R,8aS, 9R,10S,12R, 12aR)-3,6,9-trimethyldeca-hydro-12H-3,12-epoxy[1,2]dioxepino[4,3-i]isochromen-10-yl)oxy)phenyl) oxetane-3-carboxylic acid]: the midpoint of the response with HL-60 [4], the EC50, lay at 0.0403 µM. Moreover, the IC50 in “in vitro” was greater than 20 µM.

Turning to `C[C@H]1[C@@H](OCc2ccc(OCC(=O)O)cc2Cl)O[C@@H]2O[C@@]3(C)CC[C@H]4[C@H](C)CC[C@@H]1[C@@]24OO3` [Compound 223, 2-(3-chloro-4-((((3R,5aS,6R,8aS, 9R,10S,12R, 12aR)-3,6,9-trimethyldeca-hydro-12H-3,12-epoxy[1,2]dioxepino[4,3-i]isochromen-10-yl)oxy)methyl)phenoxy)acetic acid], the 50% effective concentration (EC50) with HL-60 [4] amounted to 0.111 µM. The same molecule displayed an IC50 in “in vitro” of 2.84 µM.

As to `C[C@H]1[C@@H](Oc2ccc(CC(=O)NC34CC(C(=O)O)(C3)C4)cc2)O[C@@H]2O[C@@]3(C)CC[C@H]4[C@H](C)CC[C@@H]1[C@@]24OO3` [Compound 303, 3-(2-(4-(((3R,5aS,6R,8aS, 9R,10S,12R, 12aR)-3,6,9-trimethyldeca-hydro-12H-3,12-epoxy[1,2]dioxepino[4,3-i]isochromen-10-yl)oxy)phenyl)acetamido) bicyclo[1.1.1] pentane-1-carboxylic acid], in the data set with HL-60 [4], the EC50 was found to be 0.0464 µM. The molecule also displayed an IC50 in “in vitro” greater than 20 µM.
